Experimental data taken from patent US20250194968A1, “ADMINISTRATION OF AMINOLEVULINIC ACID WITH DELAYED FLUORESCENT IMAGING TO MAP AND QUANTIFY TISSUE OXYGENATION LEVELS” (THE TRUSTEES OF DARTMOUTH COLLEGE, priority 2022, published 2025).

Test system: subcutaneous human pancreatic adenocarcinoma BxPC3 tumors
Test: PpIX delayed/immediate fluorescence imaging of subcutaneous tumors after ALA injection, with palpation
Type: in vivo
Settings: nude mice with BxPC3 tumors, ALA 250 mg/kg intraperitoneal, imaged 6 hours later
Method: Nude female mice were inoculated with a single subcutaneous injection of 10^6 human pancreatic adenocarcinoma BxPC3 cells, under the skin on the flank. After approximately 3 weeks of growth, animals were chosen for imaging when their tumor diameter reached approximately 8 mm in size. These nude mice were used in the imaging experiments described below.
ALA was either intraperitoneally injected (250 mg/kg) 6 hours prior to imaging, or topically applied onto a region of interest 3 hours before imaging as Ameluz (Trademark of Biofrontera AG, Leverkusen, Germany), ointment containing 10% ALA, as further described below
Images of tumor in the live mice were acquired using a highly sensitive intensified CMOS camera synchronized with a 50-mW average output power, 635 nm, modulated diode laser using 20 microsecond (μs) pulses at repetition rate of 500 hertz (Hz) providing pulsed fluorescence excitation light. […] Irradiance were measured using a power meter with a photodiode power sensor.
The intensifier of the intensified CMOS camera was directly controlled by circuitry synchronized to the laser pulses. […] Fifty laser pulse gate periods were integrated in each image frame, alternating between immediate fluorescence and delayed fluorescence for even and odd frames, respectively. […]

Structure (SMILES): NCC(=O)CCC(=O)O [ALA, aminolevulinic acid]
- duration of excellent tumor contrast from palpation-induced deoxygenation (after palpation): up to 5 min
- contrast in a pancreatic cancer model relative to surrounding normal oxygenated tissues (delayed fluorescence and DF/IF ratio) (in some examples): 5 factor
